# Measurements as given in US5710160A, “Diphenyl pyridyl ethane derivatives as PDE IV inhibitors” (Merck Frosst Canada, Inc., priority 1996, dated 1998).
# Tested on: right atrial and papillary muscles
# Test: not given
# Conditions: non-specific PDE inhibitor; general statement; cited from earlier work
row,SMILES,cardiovascular changes
1,Cn1c(=O)c2[nH]cnc2n(C)c1=O [theophylline],significant cardiovascular changes such as tachycardia

# Molecular target: T1, GST fusion protein of the human recombinant phosphodiesterase IVa (met-248) (Homo sapiens, UniProt P27815)
# T1 construct: GST-Met 248 PDE IVa; made in house; host or cells: Sf-9 insect cells (baculovirus expression system)
# Test: SPA based PDE activity assay (hydrolysis of cAMP to AMP)
# Type: biochemical
# Conditions: 100 nM cAMP; purified GST fusion protein, baculovirus/Sf-9; 10 min at 30° C
# Protocol: Phosphodiesterase Scintillation Proximity Assay
# CHO-K1 cells were lysed by sonication for 10 secs at a power setting of 50% (Braunsonic Model 2000) in an ice cold solution containing 50 mM Tris, pH 7.5; 1 mM EDTA; and 200 mM b-mercaptoethanol.
# The soluble and particulate fractions of the cell were obtained by centrifuging the sonicate for 90 min. at 100,000 x g at 4° C. PDE activity was measured in a solution containing 50 mM Tris, pH 7.5; 10 mM MgCl2; 1 mM EDTA; and 100 nM (or indicated) ^3 H-cAMP (100 ml final volume) in the presence of varying concentrations of inhibitor. The reaction mixture containing enzyme was incubated for 10 min. at 30° C. in 96-well View Plates (Packard), and terminated by the addition of 50 ml Phosphodiesterase Scintillation Proximity Assay (SPA) Beads (Amersham) containing 18 mM ZnSO4. The amount of ^3 H-cAMP hydrolysis was determined by counting the plates in a Wallac 1450 mBeta LSC counter.
# SPA based PDE activity assay protocol
# Compounds which inhibit the hydrolysis of cAMP to AMP by the type-IV cAMP-specific phosphodiesterases were screened in 96-well plate format as follows:
# In a 96 well-plate at 30° C. was added the test compound (dissolved in 2 ul DMSO), 188 ml of substrate buffer containing [2,8-^3 H] adenosine 3',5'-cyclic phosphate (cAMP, 100 nM to 50 μM), 10 mM MgCl2, 1 mM EDTA, 50 mM Tris, pH 7.5. The reaction was initiated by the addition of […] of human recombinant PDE-IV (the amount was controlled so that~10% product was formed in 10 min. at 30° C). The reaction was stopped after 10 min. by the addition of 1 mg of PDE-SPA beads (Amersham). The product AMP generated was quantified on a Microbeta 96-well plate counter. The signal in the absence of enzyme was defined as the background. 100% activity was defined as the signal detected in the presence of enzyme and DMSO with the background subtracted. Percentage of inhibition was calculated accordingly. IC50 value was approximated with a non-linear regression fit of the standard 4-parameter/multiple binding sites equation from a ten point titration.
# IC50 values shown in Table 2 were determined with 100 nM cAMP using the purified GST fusion protein of the human recombinant phosphodiesterase IVa (met-248) produced from a baculovirus/Sf-9 expression system.
# T1 sequence (P27815 248-886 limits assumed): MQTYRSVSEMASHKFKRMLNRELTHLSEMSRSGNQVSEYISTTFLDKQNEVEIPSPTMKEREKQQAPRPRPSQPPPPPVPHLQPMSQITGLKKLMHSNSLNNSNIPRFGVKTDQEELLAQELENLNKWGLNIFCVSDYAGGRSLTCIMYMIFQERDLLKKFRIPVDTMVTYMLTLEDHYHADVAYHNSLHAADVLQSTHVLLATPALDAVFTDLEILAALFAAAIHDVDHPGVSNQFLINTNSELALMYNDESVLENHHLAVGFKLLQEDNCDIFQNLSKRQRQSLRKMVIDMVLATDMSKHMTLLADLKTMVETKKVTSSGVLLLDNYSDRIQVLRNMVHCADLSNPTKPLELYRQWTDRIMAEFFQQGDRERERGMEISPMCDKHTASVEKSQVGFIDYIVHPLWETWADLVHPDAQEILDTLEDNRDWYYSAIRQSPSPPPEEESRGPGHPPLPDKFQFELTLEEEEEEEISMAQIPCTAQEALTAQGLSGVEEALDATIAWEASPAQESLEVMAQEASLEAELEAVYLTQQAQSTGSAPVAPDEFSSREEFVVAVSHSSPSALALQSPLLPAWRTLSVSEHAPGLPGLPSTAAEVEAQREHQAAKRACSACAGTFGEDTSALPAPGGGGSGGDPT
row,SMILES,IC50 [nM]
1,"COc1ccc([C@H](Cc2ccncc2)c2ccc(C(=O)N3CCN(C)CC3)cc2)cc1OC1CCCC1 [Example 1, (R)-4-{2-(3-Cyclopentyloxy-4-methoxyphenyl)-2-[4-(4-methylpiperazinocarbonyl)pheny]lethyl}pyridine]",0.8
2,"COc1ccc([C@H](Cc2ccncc2)c2ccc(C(=O)N3CCCC3)cc2)cc1OC1CCCC1 [Example 2, (R)-4-[2-(3-Cyclopentyloxy-4-methoxyphenyl)-2-(4-pyrrolidinocarbonylphenyl)ethyl]pyridine]",1
3,"COc1ccc([C@H](Cc2ccncc2)c2ccc(-c3nnn[nH]3)cc2)cc1OC1CCCC1 [Example 4, (R)-4-{2-(3-Cyclopentyloxy-4-methoxyphenyl)-2-[4-(tetrazol-5-yl)phenyl]ethyl}pyridine]",2

# Next, values leading:
row,IC50 [nM],SMILES
1,3,"COc1ccc([C@H](Cc2ccncc2)c2ccc(C=NO)cc2)cc1OC1CCCC1 [Example 3, (R)-4-[1-(3-Cyclopentyloxy-4-methoxyphenyl)-2-(4-pyridyl)ethyl]benzaldehyde oxime]"
2,2,"COc1ccc([C@H](Cc2ccncc2)c2ccc(C(C)O)cc2)cc1OC1CCCC1 (stereo partly drawn) [Example 5, (R)-4-{2-(3-Cyclopentyloxy-4-methoxyphenyl)-2-[4-(1-hydroxyethyl)phenyl]ethyl}pyridine]"
3,3,"COc1ccc([C@H](Cc2ccncc2)c2ccc(C(C)=O)cc2)cc1OC1CCCC1 [Example 6, (R)-4-[2-(3-Cyclopentyloxy-4-methoxyphenyl)-2-(4-acetylphenyl)ethyl]pyridine]"

# Tested on: right atrial and papillary muscles
# Test: Effects on cardiac muscle in vitro
# Parameters: species or system guinea pigs
# Conditions: reference PDE inhibitors; no concentration given
# Source text: Right atrial and papillary muscles were dissected out from the hearts of guinea pigs and suspended in organ baths for measuring the rate (chronotropic) of spontaneously beating atria and force (inotropic) of the electrically stimulated papillary muscle.
row,SMILES,direct (chronotropic and inotropic) effects in these preparations
1,Cc1[nH]c(=O)c(C#N)cc1-c1ccncc1 [milrinone],positive chronotropic and inotropic effects
2,COc1ccc(C2CNC(=O)C2)cc1OC1CCCC1 (stereo not drawn) [rolipram],do not have any direct effects
